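All cell lines were grown in 96-well plates and treated with compound for 48 hours. TGI: concentration producing complete growth inhibition.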
Assays:
Assay in all cases: NCI tumour cell line growth inhibition, 48 h
[1] = tested on: EKVX NSCLC
[2] = tested on: KM20L2 colon
[3] = tested on: XF 498 CNS
[4] = tested on: LOX IMVI melanoma
[5] = tested on: UACC-62 melanoma
[6] = tested on: HCT-15 colon
[7] = tested on: SN12C renal
[8] = tested on: IGROV1 ovarian
[9] = tested on: SF-295 CNS
[10] = tested on: SF-539 CNS
[11] = tested on: A549 NSCLC
[12] = tested on: LXFL 529 NSCLC
[13] = tested on: M14 melanoma
[14] = tested on: NCI-H522 lung
[15] = tested on: COLO 205 colon
[16] = tested on: A498 renal
[17] = tested on: OVCAR-3 ovarian
[18] = tested on: ACHN renal
[19] = tested on: SK-MEL-5 melanoma
[20] = tested on: CCRF-CEM leukemia
[21] = tested on: SNB-75 CNS
[22] = tested on: HL-60(TB) leukemia
[23] = tested on: RPMI-8226 leukemia
[24] = tested on: HOP-18 NSCLC
[25] = tested on: K-562 leukemia
[26] = tested on: HCT-116 colon
[27] = tested on: OVCAR-8 ovarian
[28] = tested on: RXF-631 renal
[29] = tested on: MOLT-4 leukemia
[30] = tested on: SR leukemia
[31] = tested on: SW-620 colon
[32] = tested on: MALME-3M melanoma
[33] = tested on: HCC-2998 colon
[34] = tested on: RXF 393 renal
[35] = tested on: M19-MEL melanoma
[36] = tested on: SK-MEL-28 melanoma
[37] = tested on: UACC-257 melanoma
[38] = tested on: DMS 114 small cell lung
[39] = tested on: NCI-H23 lung
[40] = tested on: 786-0 renal
[41] = tested on: OVCAR-4 ovarian
[42] = tested on: DMS 273 small cell lung
[43] = tested on: HOP-62 NSCLC
[44] = tested on: SNB-78 CNS
[45] = tested on: HT29 colon
[46] = tested on: NCI-H460 lung
[47] = tested on: KM12 colon
[48] = tested on: TK-10 renal
[49] = tested on: SK-MEL-2 melanoma
[50] = tested on: CAKI-1 renal
[51] = tested on: SK-OV-3 ovarian
[52] = tested on: SNB-19 CNS
[53] = tested on: U251 CNS
[54] = tested on: UO-31 renal
[55] = tested on: SF-268 CNS
[56] = tested on: DLD-1 colon
[57] = tested on: NCI-H226 lung
[58] = tested on: OVCAR-5 ovarian

Measured: TGI

COC(=O)C(C(=O)c1ccccc1)C(C(=O)C(=O)Nc1ccc(OC)cc1OC)C(=O)C(=O)c1ccc(C)cc1 (stereo not drawn)
> 100 µM: [1] | [2] | [3] | [4] | [5] | [6] | [7] | [8] | [9] | [10] | [11] | [12] | [13] | [14] | [15] | [16] | [17] | [18] | [19] | [20] | [21] | [22] | [23] | [24] | [25] | [26] | [27] | [28] | [29] | [30] | [31] | [32] | [33] | [34] | [35] | [36] | [37] | [38] | [39] | [40] | [41] | [42] | [43] | [44] | [45] | [46] | [47] | [48] | [49] | [50] | [51] | [52] | [53] | [54] | [55] | [56] | [57] | [58]

Source: PubChem BioAssay (NCI)
